# Results from patent US11076595B2, “1-(n,n-disubstituted carbamoyl) 4-(substituted sulfonyl)triazolin-5-one derivative, 4-(n,n-disubstituted carbamoyl) 1-(substituted sulfonyl)triazolin-5-one derivative, and herbicide containing said derivative as active ingredient” (HOKKO CHEMICAL INDUSTRY CO., LTD., priority 2017, dated 2021).
# What was measured:
# Format in all cases: in vivo
# Monochoria vaginalis [1] = test: Test Example 12: herbicidal effect test by treatment during growing period in paddy field; conditions: 120 g/10a; treatment seven days after sowing in flooded paddy pot; assessed 14 days after treatment
# Method in brief: (§1)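 Puddled, fertilized paddy soil in Wagner pots, sown with 30 seeds per species at 0–1 cm and flooded to ~3 cm in a glass greenhouse. Emulsifiable concentrate dripped into water 7 days after sowing at 120 g a.i. per 10 are. Suppression % from dry weight vs untreated, 14 days post-treatment, two replicates.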
# Scirpus juncoides [2] = test: as above; conditions: 120 g/10a; treatment seven days after sowing in flooded paddy pot; assessed 14 days after treatment
# Method in brief: as §1
# Echinochloa crus-galli [3] = test: as above; conditions: 120 g/10a; treatment seven days after sowing in flooded paddy pot; assessed 14 days after treatment
# Method in brief: as §1
# Lindernia pyxidaria [4] = test: as above; conditions: 120 g/10a; treatment seven days after sowing in flooded paddy pot; assessed 14 days after treatment
# Method in brief: as §1
# Chenopodium album [5] = test: Test Example 14: herbicidal effect test by foliage treatment in upland field; conditions: 7 days after sowing, 120 g/10a, 14 days after treatment
# Method in brief: (§2)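 Dose: 120 g a.i. per 10 are, sprayed in 100 L water per 10 are onto pots seven days post-sowing in alluvial soil. After 14 days, weed dry weight relative to untreated plots gave suppression rate (%); duplicate plots per concentration.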
# crabgrass [6] = test: as above; conditions: 7 days after sowing, 120 g/10a, 14 days after treatment
# Method in brief: as §2
# Chenopodium album [7] = test: Test Example 13: herbicidal effect test by soil treatment in upland field; conditions: 120 g/10a, 14 days after treatment
# Method in brief: (§3)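 Suppression rate (%) is calculated from mean plant dry weight in treated versus untreated plots, 14 days after treatment, with duplicate plots per concentration. Seeds (20 per species) are mixed into the surface centimetre of alluvial soil, and the diluted emulsifiable concentrate is sprayed onto the soil the following day at 120 g a.i. per 10 are.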
# Amaranthus viridis [8] = test: as above; conditions: 120 g/10a, 14 days after treatment
# Method in brief: as §3
# Echinochloa crus-galli [9] = test: as above; conditions: 120 g/10a, 14 days after treatment
# Method in brief: as §3
# crabgrass [10] = test: as above; conditions: 120 g/10a, 14 days after treatment
# Method in brief: as §3
# Amaranthus viridis [11] = test: Test Example 14: herbicidal effect test by foliage treatment in upland field; conditions: 7 days after sowing, 120 g/10a, 14 days after treatment
# Method in brief: as §2
# Echinochloa crus-galli [12] = test: as above; conditions: 7 days after sowing, 120 g/10a, 14 days after treatment
# Method in brief: as §2
# Monochoria vaginalis [13] = test: Test Example 11: herbicidal effect test by soil treatment in paddy field; conditions: 120 g/10a active ingredient, 14 days after treatment
# Method in brief: (§4)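 Weed suppression rate (%) was calculated as (1 − mean treated dry weight / mean untreated dry weight) × 100 at 14 days after treatment, two replicates per plot. Seeds were sown at 0–1 cm in flooded (about 3 cm) puddled paddy soil and treated immediately at 120 g active ingredient per 10 are.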
# Scirpus juncoides [14] = test: as above; conditions: 120 g/10a active ingredient, 14 days after treatment
# Method in brief: as §4
# Echinochloa crus-galli [15] = test: as above; conditions: 120 g/10a active ingredient, 14 days after treatment
# Method in brief: as §4
# Lindernia pyxidaria [16] = test: as above; conditions: 120 g/10a active ingredient, 14 days after treatment
# Method in brief: as §4
Structure (SMILES),Weed suppression rate (%) Monochoria vaginalis (Monochoria vaginalis [1]) [%],Weed suppression rate (%) Scirpus juncoides (Scirpus juncoides [2]) [%],Weed suppression rate (%) Echinochloa crus-galli (Echinochloa crus-galli [3]) [%],Weed suppression rate (%) Lindemia pyxidaria (Lindernia pyxidaria [4]) [%],"herbicidal effect, Chenopodium album (Chenopodium album [5]) [%]","herbicidal effect, Crabgrass (crabgrass [6]) [%]","herbicidal effect, Chenopodium album (Chenopodium album [7]) [%]","herbicidal effect, Amaranthus viridis (Amaranthus viridis [8]) [%]","herbicidal effect, Echinochloa crus-galli (Echinochloa crus-galli [9]) [%]","herbicidal effect, Crabgrass (crabgrass [10]) [%]","herbicidal effect, Amaranthus viridis (Amaranthus viridis [11]) [%]","herbicidal effect, Echinochloa crus-galli (Echinochloa crus-galli [12]) [%]",Weed suppression rate (%) Monochoria vaginalis (Monochoria vaginalis [13]) [%],Weed suppression rate (%) Scirpus juncoides (Scirpus juncoides [14]) [%],Weed suppression rate (%) Echinochloa crus-galli (Echinochloa crus-galli [15]) [%],Weed suppression rate (%) Lindemia pyxidaria (Lindernia pyxidaria [16]) [%]
Cc1ccc(N(C(=O)n2cnn(S(=O)(=O)C(C)C)c2=O)C(C)C)c(F)c1 [Compound 11-73],80,90,90,80,80,90,80,90,80,90,90,80,80,90,90,80
CC(C)N(C(=O)n1cnn(S(=O)(=O)C(C)C)c1=O)c1ccc(Cl)cn1 [Compound 11-85],90,70,90,90,80,90,60,90,100,100,90,80,80,90,90,80
CC(C)N(C(=O)n1cnn(S(=O)(=O)C(C)C)c1=O)c1ncc(Cl)cc1Cl [Compound 11-86],90,90,90,90,80,90,80,90,80,90,90,80,80,90,90,80
CCC(C)S(=O)(=O)n1ncn(C(=O)N(c2ccc(F)cc2F)C(C)C)c1=O (stereo not drawn) [Compound 11-93],90,90,90,80,80,90,80,90,80,90,90,80,90,90,90,90
CC(C)CS(=O)(=O)n1ncn(C(=O)N(c2ccc(F)cc2F)C(C)C)c1=O [Compound 11-94],90,90,100,100,90,90,90,80,100,100,50,90,100,90,100,100
CC(C)N(C(=O)n1cnn(S(=O)(=O)CCl)c1=O)c1ccc(F)cc1F [Compound 11-109],90,90,100,100,40,90,100,90,100,100,40,90,90,90,100,100
Cc1ccc(N(C(=O)n2cnn(S(=O)(=O)CCl)c2=O)C(C)C)c(F)c1 [Compound 11-123],80,90,90,80,80,90,80,90,80,90,90,80,80,90,90,80
"CC(C)N(C(=O)n1cnn(S(=O)(=O)C2CC2)c1=O)c1ccc(F)cc1F [Compound 11-142, 1-cyclopropylsulfonyl-N-(2,4-difluorophenyl)-N-isopropyl-5-oxo-1,2,4-triazole-4-carboxamide]",90,80,100,80,80,90,80,90,80,90,90,80,90,100,100,100
CC(C)N(C(=O)n1cnn(S(=O)(=O)C2CC2)c1=O)c1ccccc1 [Compound 11-159],90,80,90,70,80,90,80,90,80,90,90,80,80,90,90,80
